TGI and GI50 data for 13 molecules are collected here from PubChem BioAssay (NCI).

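Results reflect a 48-hour exposure of cells in 96-well plates to compound at five concentrations. Abbreviation: GI50, concentration required for 50% inhibition of growth. The concentration for full growth arrest is given as TGI.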 Some results are limits rather than exact numbers.

Some test systems named below: T-47D breast; HCT-116 colon; SNB-75 CNS; MDA-MB-435; K-562 leukemia; 786-0 renal; MALME-3M melanoma; NCI-H226 lung; SK-MEL-28 melanoma; ACHN renal.
Common to all, as to experiment: NCI anticancer screen, dose series, 48 h

As to `Cc1nccn1S(=O)(=O)c1ccc(Cl)cc1`, the TGI in the assay with T-47D breast is over 100 µM; in the assay with HCT-116 colon, over 100 µM; in the assay on SNB-75 CNS it was over 100 µM; in the assay on MDA-MB-435, 48.8 µM; with K-562 leukemia, over 100 µM; with 786-0 renal, over 100 µM. In addition, the TGI in the assay on MALME-3M melanoma, with NCI-H226 lung, with SK-MEL-28 melanoma and with ACHN renal was over 100 µM each time.

Turning to `Nc1ccc(C(=O)O)cc1`, the TGI in the assay with T-47D breast, with HCT-116 colon, with SNB-75 CNS, with MDA-MB-435, in the assay on K-562 leukemia and in the assay with 786-0 renal was over 100 µM throughout. Besides, the TGI with MALME-3M melanoma, in the assay with NCI-H226 lung, in the assay on SK-MEL-28 melanoma and with ACHN renal was over 100 µM throughout.

As for `CCN(CCC#N)C(=O)Nc1ccccc1`, the TGI with T-47D breast, with HCT-116 colon, in the assay on SNB-75 CNS, in the assay on MDA-MB-435, in the assay with K-562 leukemia and in the assay with 786-0 renal was over 100 µM in each case. Also, the TGI with MALME-3M melanoma, in the assay with NCI-H226 lung, in the assay with SK-MEL-28 melanoma and with ACHN renal was over 100 µM in each case.

With `CC(C)(C)CC(C)(C)NCC(O)COc1ccc(C(C)(C)c2ccc(OCC(O)CNC(C)(C)CC(C)(C)C)cc2)cc1` (centres undefined), the values for the GI50 in the assay on T-47D breast and in the assay on MDA-MB-435 were 1.66 µM and 0.513 µM, respectively. Also, the TGI is 3.48 µM in the assay with T-47D breast; 5.38 µM with HCT-116 colon; 2.79 µM in the assay on SNB-75 CNS; 1.73 µM in the assay with MDA-MB-435; 1.16 µM with K-562 leukemia; 2.77 µM in the assay on 786-0 renal. In addition, the TGI with MALME-3M melanoma was 2.96 µM; in the assay on NCI-H226 lung, 3.51 µM; in the assay with SK-MEL-28 melanoma it was 1.85 µM; with ACHN renal, 3.17 µM.

Turning to `O=c1[nH]c2ccc(C(F)(F)F)cc2nc1C(F)(F)F`, the TGI is 45.9 µM in the assay with T-47D breast; 60.7 µM in the assay on HCT-116 colon; 48 µM with SNB-75 CNS; 78.8 µM with MDA-MB-435; over 100 µM in the assay with K-562 leukemia; over 100 µM in the assay on 786-0 renal. The TGI in the assay on MALME-3M melanoma is 74.2 µM; in the assay with NCI-H226 lung, 89 µM; in the assay with SK-MEL-28 melanoma, over 100 µM; in the assay with ACHN renal it was over 100 µM.

With `CC(C)=CCC[C@@H](C)C1=C(O)C(Nc2ccccc2)=C(C)C(=O)C1=O`, the TGI in the assay on T-47D breast is 59.7 µM; in the assay on HCT-116 colon, over 75.6 µM; with SNB-75 CNS it was over 85.8 µM; in the assay on MDA-MB-435, over 100 µM; with K-562 leukemia, over 80.9 µM; with 786-0 renal, over 100 µM. In addition, the TGI is over 75 µM in the assay on MALME-3M melanoma, over 73.4 µM in the assay with NCI-H226 lung, over 100 µM in the assay with SK-MEL-28 melanoma and 36.1 µM in the assay with ACHN renal.

Turning to `CC(=O)c1c(O)cc(O)c(-c2c(C)cc(O)c3c2C(=O)c2cccc(O)c2C3=O)c1O`, the TGI in the assay on T-47D breast came to 22.7 µM; in the assay on HCT-116 colon, 30 µM; in the assay with SNB-75 CNS, 38.1 µM; in the assay with MDA-MB-435, 34.5 µM; in the assay with K-562 leukemia it was 62.6 µM; with 786-0 renal, 31.7 µM. For the same molecule, the TGI was 30.6 µM in the assay with MALME-3M melanoma, 58.1 µM in the assay with NCI-H226 lung, 73.5 µM in the assay on SK-MEL-28 melanoma and 25.5 µM in the assay with ACHN renal.

Take `N=C(N)c1ccc(-c2ccc(-c3ccc(Cl)cc3Cl)s2)nc1`: the GI50 in the assay on T-47D breast was 2.21 µM; in the assay with SNB-75 CNS, 1.43 µM; in the assay with MDA-MB-435 it was 1.73 µM; with MALME-3M melanoma it was 1.71 µM; in the assay on NCI-H226 lung, 5.02 µM; in the assay on SK-MEL-28 melanoma, 1.76 µM. The GI50 with ACHN renal was 1.77 µM. Further, the TGI with T-47D breast is 4.96 µM; with SNB-75 CNS, 2.83 µM; in the assay on MDA-MB-435, 3.11 µM; in the assay with MALME-3M melanoma, 3.23 µM; with NCI-H226 lung, 28.4 µM; with SK-MEL-28 melanoma it was 3.28 µM. For the same molecule, the TGI in the assay on ACHN renal was determined as 3.16 µM.

Turning to `Cc1ccc2c(c1)Nc1ccccc1P2(=O)O`, the TGI was over 100 µM in the assay on T-47D breast; over 100 µM in the assay with HCT-116 colon; 97.7 µM with SNB-75 CNS; over 100 µM in the assay on MDA-MB-435; over 100 µM with K-562 leukemia; over 100 µM with 786-0 renal. The TGI in the assay on MALME-3M melanoma, with NCI-H226 lung, in the assay with SK-MEL-28 melanoma and in the assay on ACHN renal was over 100 µM in each case.

On to `Fc1ccc2c(c1)nc1n2C(c2c(F)cccc2F)SC1` (centres undefined), for which the TGI in the assay on T-47D breast, with HCT-116 colon, with SNB-75 CNS, in the assay on MDA-MB-435, in the assay on 786-0 renal and in the assay on MALME-3M melanoma was over 100 µM throughout. The TGI in the assay on NCI-H226 lung, in the assay with SK-MEL-28 melanoma and with ACHN renal was over 100 µM in each case.

`COc1cc2nc(-c3cccs3)nc(N3C(c4cc(OC)c(OC)c(OC)c4)=NNC(=O)c4ccccc43)c2cc1OC`: the TGI in the assay with T-47D breast was over 100 µM; with HCT-116 colon, over 100 µM; in the assay on SNB-75 CNS it was 54.2 µM; in the assay with MDA-MB-435 it was 32.1 µM; in the assay with K-562 leukemia, over 100 µM; in the assay on 786-0 renal, over 100 µM. The TGI in the assay on MALME-3M melanoma was 45 µM; in the assay on NCI-H226 lung it was over 100 µM; with SK-MEL-28 melanoma, 81.6 µM; in the assay on ACHN renal it was over 100 µM.

With `Nc1ccn(CC(O)c2cc3ccccc3[nH]2)c(=O)n1` (centres undefined), the TGI in the assay on T-47D breast, in the assay with HCT-116 colon, in the assay with SNB-75 CNS, with MDA-MB-435, in the assay with K-562 leukemia and in the assay with 786-0 renal was over 100 µM each time. Besides, the TGI with MALME-3M melanoma, in the assay with NCI-H226 lung, with SK-MEL-28 melanoma and with ACHN renal was over 100 µM each time.

On to `CNC(=O)C1OC(n2cnc3c(NCc4cccc(I)c4)nc(Cl)nc32)C(O)C1O` (centres undefined), for which the TGI was 61.8 µM in the assay with T-47D breast; 41.7 µM in the assay with HCT-116 colon; 16.5 µM in the assay with SNB-75 CNS; 27 µM with MDA-MB-435; over 100 µM with K-562 leukemia; 46.8 µM with 786-0 renal. Also, the TGI was 19.6 µM in the assay with MALME-3M melanoma, 23 µM in the assay with NCI-H226 lung and 24 µM in the assay with ACHN renal.
